Assay results as given in patent US4278612A, “2-Chloro-2-alkyl substituted peroxyesters” (priority 1979, dated 1981).

Experiment: Half-life data for 2-chloro-2-alkyl substituted peroxyesters (0.2M in Benzene)
Assay type: physicochemical
Conditions: for Half-Life: 200000 µM
Text: The following Table III illustrates the desirable half lifes obtainable with compositions of this invention:
HALF-LIFE DATA FOR SELECTED 2-CHLORO-2-ALKYL
SUBSTITUTED PEROXYESTERS (0.2M in Benzene)

SMILES: CCCCC(Cl)(CC)C(=O)OOC(C)(C)C (stereo not drawn) [TBPCEH, t-Butyl peroxy 2-chloro-2-ethyl hexanoate]
- 10 Hr Half-Life Temp: 56.2 °C
- Half-Life (55 °C.): 11.55 h
- Half-Life (65 °C.): 3.72 h
- Half-Life (75 °C.): 1.16 h
- Half-Life (80 °C.): 0.68 h

SMILES: CCC(Cl)(CC)C(=O)OOC(C)(C)CC(C)(C)C [TMBPCEB, 1,1,3,3 Tetramethylbutylperoxy-2-chloro-2-ethylbutyrate]
- Half-Life (47.5 °C.): 23.22 h
- Half-Life (50 °C.): 16.84 h
- Half-Life (55 °C.): 9.00 h
- Half-Life (65 °C.): 2.38 h
